“And” between values parts separate entries of the source, which are not always exact repeats. Identical values can stand only once. Toxic doses and inconclusive results are not listed.

The assay has as its system CD2F1 mice, L1210 leukemia ip, survival T/C. Briefly: NCI In Vivo Anticancer Drug Screen. Data for tumor model L1210 Leukemia (intraperitoneal) in CD2F1 (CDF1) mice. The settings on record: higher = longer survival. An outline of the steps: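 Vehicle-treated tumor-bearing mice served as controls (C) for compound-treated mice (T). Reported figure is T divided by C.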
[1] abbreviates: endpoint: mean survival time, dose: 100.0 mg/kg/injection, schedule: Q01DX009 (ip), vehicle: saline with Tween-80.
The mark [2] stands for this setting: endpoint: mean survival time, dose: 100.0 mg/kg/injection, schedule: Q04DX003 (ip), vehicle: saline with Tween-80.
Where [3] appears, read: endpoint: mean survival time, dose: 200.0 mg/kg/injection, schedule: Q01DX009 (ip), vehicle: saline with Tween-80.
Where [4] appears, read: endpoint: mean survival time, dose: 200.0 mg/kg/injection, schedule: Q04DX003 (ip), vehicle: saline with Tween-80.
Setting [5] is: endpoint: mean survival time, dose: 400.0 mg/kg/injection, schedule: Q04DX003 (ip), vehicle: saline with Tween-80.
The mark [6] stands for this setting: endpoint: mean survival time, dose: 100.0 mg/kg/injection, schedule: Q04DX002 (ip), vehicle: saline with Tween-80.
Where [7] appears, read: endpoint: mean survival time, dose: 200.0 mg/kg/injection, schedule: Q04DX002 (ip), vehicle: saline with Tween-80.
Setting [8] is: endpoint: mean survival time, dose: 400.0 mg/kg/injection, schedule: Q04DX002 (ip), vehicle: saline with Tween-80.

As to `O=c1cc(-c2ccccc2)[nH]c(-c2ccccc2)c1`, the T/C runs as follows: (endpoint: mean survival time, dose: 100.0 mg/kg/injection, schedule: Q01DX001 (ip), vehicle: saline with Tween-80) 100 % of control; under setting [1], 89 % of control; under setting [2], 89 % of control; (endpoint: mean survival time, dose: 200.0 mg/kg/injection, schedule: Q01DX001 (ip), vehicle: saline with Tween-80) 88 % of control; under setting [3], 88 % of control; under setting [4], 93 % of control. The T/C by setting is: (endpoint: mean survival time, dose: 400.0 mg/kg/injection, schedule: Q01DX001 (ip), vehicle: saline with Tween-80) 89 % of control; under setting [5], 86 % of control.
In the case of `O=C(O)C(=O)O.[NH-]C1CCCC1[NH-].[Pt+2]` (stereo not given), the T/C (endpoint: mean survival time, dose: 1.25 mg/kg/injection, schedule: Q04DX003 (ip), vehicle: other) is 104 % of control; the T/C (endpoint: mean survival time, dose: 2.5 mg/kg/injection, schedule: Q04DX003 (ip), vehicle: other) was 114 % of control; the T/C (endpoint: mean survival time, dose: 5.0 mg/kg/injection, schedule: Q04DX003 (ip), vehicle: other) is 115 % of control; the T/C (endpoint: mean survival time, dose: 10.0 mg/kg/injection, schedule: Q04DX003 (ip), vehicle: other) was 106 % of control.
Take `O=[N+]([O-])c1ccc(N=Cc2ccc3c(c2)OCO3)c(Br)c1`: the T/C was 108 % of control (endpoint: mean survival time, dose: 100.0 mg/kg/injection, schedule: Q01DX009 (ip), vehicle: Klucel (hydroxypropylcellulose) (HPC)); 108 % of control (endpoint: mean survival time, dose: 100.0 mg/kg/injection, schedule: Q04DX003 (ip), vehicle: other); 109 % of control (endpoint: mean survival time, dose: 200.0 mg/kg/injection, schedule: Q01DX009 (ip), vehicle: Klucel (hydroxypropylcellulose) (HPC)); 103 % of control (endpoint: mean survival time, dose: 200.0 mg/kg/injection, schedule: Q04DX003 (ip), vehicle: other); 109 % of control (endpoint: mean survival time, dose: 400.0 mg/kg/injection, schedule: Q01DX009 (ip), vehicle: Klucel (hydroxypropylcellulose) (HPC)); 103 % of control (endpoint: mean survival time, dose: 400.0 mg/kg/injection, schedule: Q04DX003 (ip), vehicle: other).
Regarding `C1CCC(N=C(NC2CCCCC2)NC2CCCCC2)CC1`, the T/C by setting is: under setting [2], 109 % of control; under setting [4], 100 % of control.
Consider `CC1(C)COC(CC2(O)CCCCCC2)=N1`, for which the T/C is 101 % of control under setting [6]; 95 % of control under setting [2]; 96 % of control under setting [7]; 88 % of control under setting [4]; 101 % of control under setting [8]; 93 % of control under setting [5].
As to `CC1(O)CC2CCC1C2` (stereo not given), the T/C is 95 % of control (endpoint: mean survival time, dose: 100.0 mg/kg/injection, schedule: Q04DX003 (ip), vehicle: saline); 90 % of control (endpoint: mean survival time, dose: 200.0 mg/kg/injection, schedule: Q04DX003 (ip), vehicle: saline); 87 % of control (endpoint: mean survival time, dose: 400.0 mg/kg/injection, schedule: Q04DX003 (ip), vehicle: saline).
As to `COC12CC3C4CCC5CC(O)CCC5(C)C4CCC3(C)C1C(C)C1(CCC(C)CO1)O2` (stereo not given), the T/C under setting [2] is 100 % of control, the T/C under setting [4] was 96 % of control and the T/C under setting [5] is 92 % of control.
Consider `CCCCC(CC)CNCC(CC)CCCC` (stereo not given), for which the T/C is 93 % of control (endpoint: mean survival time, dose: 50.0 mg/kg/injection, schedule: Q04DX003 (ip), vehicle: saline with Tween-80) and 91 % of control under setting [2].
`CSc1ncnc2c1ncn2C1OC(CO)C(O)C1O` (stereo not given): the T/C is, setting by setting: (endpoint: mean survival time, dose: 4.0 mg/kg/injection, schedule: Q01DX009 (ip), vehicle: saline) 118 % of control; (endpoint: mean survival time, dose: 5.0 mg/kg/injection, schedule: Q01DX005 (ip), vehicle: saline) 118 % of control and 124 % of control; (endpoint: mean survival time, dose: 5.0 mg/kg/injection, schedule: Q01DX007 (ip), vehicle: saline) 110 % of control; (endpoint: mean survival time, dose: 5.0 mg/kg/injection, schedule: Q01DX009 (ip), vehicle: saline) 114 % of control; (endpoint: mean survival time, dose: 5.0 mg/kg/injection, schedule: Q03DX003 (ip), vehicle: saline) 115 % of control; (endpoint: mean survival time, dose: 5.0 mg/kg/injection, schedule: Q04DX003 (ip), vehicle: saline) 103 % of control. For the same compound, the T/C was 116 % of control (endpoint: mean survival time, dose: 10.0 mg/kg/injection, schedule: Q01DX007 (ip), vehicle: saline); 121 % of control (endpoint: mean survival time, dose: 10.0 mg/kg/injection, schedule: Q01DX009 (ip), vehicle: saline); 122 % of control (endpoint: mean survival time, dose: 10.0 mg/kg/injection, schedule: Q03DX003 (ip), vehicle: saline); 112 % of control (endpoint: mean survival time, dose: 10.0 mg/kg/injection, schedule: Q04DX003 (ip), vehicle: saline); 150 % of control (endpoint: mean survival time, dose: 12.5 mg/kg/injection, schedule: Q01DX009 (ip), vehicle: saline); 154 % of control (endpoint: mean survival time, dose: 20.0 mg/kg/injection, schedule: Q01DX005 (ip), vehicle: saline). The T/C reads like this: (endpoint: mean survival time, dose: 20.0 mg/kg/injection, schedule: Q04DX003 (ip), vehicle: saline) 114 % of control; (endpoint: mean survival time, dose: 25.0 mg/kg/injection, schedule: Q01DX001 (ip), vehicle: saline) 118 % of control; (endpoint: mean survival time, dose: 32.0 mg/kg/injection, schedule: Q01DX009 (ip), vehicle: saline) 115 % of control; (endpoint: mean survival time, dose: 40.0 mg/kg/injection, schedule: Q01DX005 (ip), vehicle: saline) 164 % of control and 166 % of control; (endpoint: mean survival time, dose: 64.0 mg/kg/injection, schedule: Q01DX009 (ip), vehicle: saline) 80 % of control; (endpoint: mean survival time, dose: 80.0 mg/kg/injection, schedule: Q01DX005 (ip), vehicle: saline) 119 % of control. In addition, the T/C (endpoint: median survival time, dose: 18.0 mg/kg/injection, schedule: Q01DX009 (ip), vehicle: saline) is 155 % of control; the T/C (endpoint: median survival time, dose: 27.0 mg/kg/injection, schedule: Q01DX009 (ip), vehicle: saline) is 170 % of control and 191 % of control; the T/C (endpoint: median survival time, dose: 30.0 mg/kg/injection, schedule: Q01DX009 (ip), vehicle: saline) was 158 % of control and 161 % of control; the T/C (endpoint: median survival time, dose: 35.0 mg/kg/injection, schedule: Q01DX009 (ip), vehicle: saline) was 183 % of control; the T/C (endpoint: median survival time, dose: 45.0 mg/kg/injection, schedule: Q01DX009 (ip), vehicle: saline) was 119 % of control and 108 % of control; the T/C (endpoint: median survival time, dose: 123.0 mg/kg/injection, schedule: Q01DX001 (ip), vehicle: saline) is 157 % of control. The T/C was 160 % of control (endpoint: median survival time, dose: 185.0 mg/kg/injection, schedule: Q01DX001 (ip), vehicle: saline with Tween-80) and 151 % of control (endpoint: median survival time, dose: 185.0 mg/kg/injection, schedule: Q01DX001 (ip), vehicle: saline).
Take `O=NN(c1ccccc1)c1ccc([N+](=O)[O-])cc1`: the T/C runs as follows: under setting [1], 95 % of control; under setting [2], 92 % of control; under setting [3], 90 % of control; under setting [4], 97 % of control; under setting [5], 98 % of control.
Regarding `C[n+]1c(O)c(C(=O)CCl)n2cc([N+](=O)[O-])ccc21`, the T/C was 95 % of control (endpoint: mean survival time, dose: 12.5 mg/kg/injection, schedule: Q01DX009 (ip), vehicle: acetone); 101 % of control (endpoint: mean survival time, dose: 25.0 mg/kg/injection, schedule: Q01DX009 (ip), vehicle: acetone); 90 % of control (endpoint: mean survival time, dose: 50.0 mg/kg/injection, schedule: Q01DX009 (ip), vehicle: acetone).
With `COc1cc(N=Nc2ccccc2C(=O)O)ccc1N(CCCl)CCCl`, the T/C runs as follows: (endpoint: mean survival time, dose: 6.25 mg/kg/injection, schedule: Q01DX009 (ip), vehicle: Klucel (hydroxypropylcellulose) (HPC)) 99 % of control; (endpoint: mean survival time, dose: 12.5 mg/kg/injection, schedule: Q01DX009 (ip), vehicle: Klucel (hydroxypropylcellulose) (HPC)) 108 % of control; (endpoint: mean survival time, dose: 25.0 mg/kg/injection, schedule: Q01DX009 (ip), vehicle: Klucel (hydroxypropylcellulose) (HPC)) 123 % of control.
Turning to `O=C(/C=C/c1ccccc1)Nc1ccc(Cl)c(Cl)c1`, the T/C under setting [6] is 100 % of control, the T/C under setting [7] is 91 % of control and the T/C under setting [8] is 95 % of control.
For `OC(CCC(O)CSc1ccccc1)CSc1ccccc1` (stereo not given), the T/C (endpoint: mean survival time, dose: 100.0 mg/kg/injection, schedule: Q01DX009 (ip), vehicle: other) is 100 % of control; the T/C (endpoint: mean survival time, dose: 200.0 mg/kg/injection, schedule: Q01DX009 (ip), vehicle: other) was 100 % of control; the T/C (endpoint: mean survival time, dose: 400.0 mg/kg/injection, schedule: Q01DX009 (ip), vehicle: other) is 96 % of control.
With `CC1(C)OCC(C(O)C(O)C(O)CO)O1` (stereo not given), the T/C by setting is: (endpoint: mean survival time, dose: 50.0 mg/kg/injection, schedule: Q01DX009 (ip), vehicle: saline) 102 % of control; (endpoint: mean survival time, dose: 100.0 mg/kg/injection, schedule: Q01DX009 (ip), vehicle: saline) 98 % of control; (endpoint: mean survival time, dose: 200.0 mg/kg/injection, schedule: Q01DX009 (ip), vehicle: saline) 102 % of control.

The values are drawn from PubChem BioAssay AID256 (DTP/NCI, 2004).
